Source: US12077503B2, “Substituted cyclic amides and their use as herbicides” (FMC CORPORATION, priority 2015, dated 2024)

How the values were obtained:
Assay type in all cases: in vivo
[1] = system: late watergrass (Echinochloa oryzicola); test: Test F flooded paddy test; parameters: key: 0 = no effect, 100 = complete control; details: Flood
From the text: Plant species in the flooded paddy test consisted of one stand of 9 or 10 water seeded rice seedlings (Rice, W. S. Jap, Oryza sativa cv. ‘Japonica—M202’ or Rice, W. S. Ind, ‘Indica’), and two stands of 3 or 4 transplanted rice seedlings (Oryza sativa cv. ‘Japonica—M202’), Monochoria (Monochoria vaginalis), sedge, umbrella (small-flower umbrella sedge, Cyperus difformis), hardstem bulrush (Scirpus juncoides), redstem (purple redstem, Ammannia coccinea), rice flatsedge (Cyperus iria), bearded sprangletop (Leptochloa fascicularis), barnyardgrass (Echinochloa crus-galli), waterplantain (common waterplantain, Alisma plantago-aquatica), and late watergrass (Echinochloa oryzicola) grown to the 2 to 2.5 leaf stage for testing. Potted plants were grown in a greenhouse with day/night temperature settings of 30/27° C., and supplemental balanced lighting was provided to maintain a 16-hour photoperiod. At time of treatment, test pots were flooded to 3 cm above the soil surface, treated by application of test compounds directly to the paddy water, and then maintained at that water depth for the duration of the test. Effects of treatments on rice and weeds were visually evaluated by comparison to untreated controls after 21 d. Plant response ratings, summarized in Table F, are based on a scale of 0 to 100 where 0 is no effect and 100 is complete control. A dash (-) response means no test result.

[2] = system: johnsongrass (Sorghum halepense); test: Test C preemergence; details: for Plant response rating, Johnsongrass: scale 0 to 100, 0 no effect, 100 complete control
Procedure, shortened: (§1)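 Preemergence application to seeds in loam/sand soil, or foliar (postemergence) application to plants 2–18 cm tall in peat moss/vermiculite medium; surfactant-containing non-phytotoxic solvent vehicle; greenhouse. Visual injury vs controls at 13–15 d; 0 = no effect, 100 = complete control.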

[3] = system: velvetleaf (Abutilon theophrasti); test: Test C preemergence; details: for Plant response rating, Velvetleaf: scale 0 to 100, 0 no effect, 100 complete control
Procedure, shortened: as §1

soybean (Glycine max) = test: Test C preemergence; details: for Plant response rating, Soybean: scale 0 to 100, 0 no effect, 100 complete control
Procedure, shortened: as §1

[4] = system: crabgrass, large (large crabgrass, Digitaria sanguinalis); test: Test C preemergence; details: for Plant response rating, Crabgrass, Large: scale 0 to 100, 0 no effect, 100 complete control
Procedure, shortened: as §1

[5] = system: morningglory (Ipomoea coccinea); test: Test C preemergence; details: for Plant response rating, Morningglory: scale 0 to 100, 0 no effect, 100 complete control
Procedure, shortened: as §1

[6] = system: ragweed (common ragweed, Ambrosia elatior); test: Test C preemergence; details: for Plant response rating, Ragweed: scale 0 to 100, 0 no effect, 100 complete control
Procedure, shortened: as §1

[7] = system: oilseed rape (Brassica napus); test: Test C preemergence; details: for Plant response rating, Oilseed Rape: scale 0 to 100, 0 no effect, 100 complete control
Procedure, shortened: as §1

[8] = system: blackgrass (Alopecurus myosuroides); test: Test C preemergence; details: for Plant response rating, Blackgrass: scale 0 to 100, 0 no effect, 100 complete control
Procedure, shortened: as §1

[9] = system: wheat (winter wheat, Triticum aestivum); test: Test C preemergence; details: for Plant response rating, Wheat: scale 0 to 100, 0 no effect, 100 complete control
Procedure, shortened: as §1

[10] = system: lambsquarters (Chenopodium album); test: Test C preemergence; details: for Plant response rating, Lambsquarters: scale 0 to 100, 0 no effect, 100 complete control
Procedure, shortened: as §1

[11] = system: ryegrass, Italian (Italian ryegrass, Lolium multiflorum); test: Test C preemergence; details: for Plant response rating, Ryegrass, Italian: scale 0 to 100, 0 no effect, 100 complete control
Procedure, shortened: as §1

[12] = system: foxtail, giant (giant foxtail, Setaria faberii); test: Test C preemergence; details: for Plant response rating, Foxtail, Giant: scale 0 to 100, 0 no effect, 100 complete control
Procedure, shortened: as §1

[13] = system: barnyardgrass (Echinochloa crus-galli); test: Test C preemergence; details: for Plant response rating, Barnyardgrass: scale 0 to 100, 0 no effect, 100 complete control
Procedure, shortened: as §1

[14] = system: waterhemp (common waterhemp, Amaranthus rudis); test: Test C preemergence; details: for Plant response rating, Waterhemp: scale 0 to 100, 0 no effect, 100 complete control
Procedure, shortened: as §1

[15] = system: Galium (catchweed bedstraw, Galium aparine); test: Test C preemergence; details: for Plant response rating, Galium: scale 0 to 100, 0 no effect, 100 complete control
Procedure, shortened: as §1

[16] = system: pigweed (Amaranthus retroflexus); test: Test C preemergence; details: for Plant response rating, Pigweed: scale 0 to 100, 0 no effect, 100 complete control
Procedure, shortened: as §1

[17] = 31 g ai/ha, 0 is no effect, 100 is complete control

CN1C[C@H](c2ccc(F)c(F)c2)[C@@H](C(=O)Nc2ccccc2F)C1=O [Compound 596, (3S,4S)-4-(3,4-difluorophenyl)-N-(2-fluorophenyl)-1-methyl-2-oxo-3-pyrrolidinecarboxamide]
30: Plant response rating, Velvetleaf ([3]; 125 g ai/ha) | Plant response rating, Oilseed Rape ([7]; 125 g ai/ha) | Plant response rating, Ryegrass, Italian ([11]; 125 g ai/ha) | Plant response rating (scale of 0 to 100), Galium [15, 17]
100: Plant response rating: Watergrass, Late ([1]; 125 g ai/ha) | Plant response rating: Watergrass, Late ([1]; 250 g ai/ha) | Plant response rating, Soybean (soybean (Glycine max); 250 g ai/ha) | Plant response rating, Crabgrass, Large ([4]; 62 g ai/ha) | Plant response rating, Crabgrass, Large ([4]; 125 g ai/ha) | Plant response rating, Crabgrass, Large ([4]; 250 g ai/ha) | Plant response rating, Foxtail, Giant ([12]; 250 g ai/ha)
0: Plant response rating (scale of 0 to 100), Soybean (soybean (Glycine max); [17]) | Plant response rating, Soybean (soybean (Glycine max); 62 g ai/ha) | Plant response rating, Soybean (soybean (Glycine max); 125 g ai/ha) | Plant response rating (scale of 0 to 100), Morningglory [5, 17] | Plant response rating, Morningglory ([5]; 62 g ai/ha) | Plant response rating (scale of 0 to 100), Oilseed Rape [7, 17] | Plant response rating, Oilseed Rape ([7]; 62 g ai/ha) | Plant response rating (scale of 0 to 100), Blackgrass [8, 17] | Plant response rating (scale of 0 to 100), Ryegrass, Italian [11, 17] | Plant response rating, Ryegrass, Italian ([11]; 62 g ai/ha) | Plant response rating (scale of 0 to 100), Waterhemp [14, 17] | Plant response rating, Waterhemp ([14]; 62 g ai/ha)
45: Plant response rating, Wheat ([9]; 62 g ai/ha) | Plant response rating, Ryegrass, Italian ([11]; 250 g ai/ha)
40: Plant response rating: Watergrass, Late ([1]; 32 g ai/ha) | Plant response rating, Blackgrass ([8]; 62 g ai/ha) | Plant response rating, Galium ([15]; 125 g ai/ha) | Plant response rating, Pigweed ([16]; 125 g ai/ha)
20: Plant response rating (scale of 0 to 100), Johnsongrass [2, 17] | Plant response rating, Velvetleaf ([3]; 62 g ai/ha) | Plant response rating, Morningglory ([5]; 250 g ai/ha) | Plant response rating, Ragweed ([6]; 62 g ai/ha) | Plant response rating (scale of 0 to 100), Pigweed [16, 17]
70: Plant response rating, Johnsongrass ([2]; 125 g ai/ha) | Plant response rating, Blackgrass ([8]; 125 g ai/ha) | Plant response rating, Wheat ([9]; 250 g ai/ha) | Plant response rating, Lambsquarters ([10]; 125 g ai/ha)
55: Plant response rating, Velvetleaf ([3]; 250 g ai/ha) | Plant response rating, Pigweed ([16]; 250 g ai/ha)
90: Plant response rating, Oilseed Rape ([7]; 250 g ai/ha) | Plant response rating, Blackgrass ([8]; 250 g ai/ha) | Plant response rating (scale of 0 to 100), Foxtail, Giant [12, 17] | Plant response rating, Foxtail, Giant ([12]; 62 g ai/ha) | Plant response rating (scale of 0 to 100), Barnyardgrass [13, 17]
85: Plant response rating: Watergrass, Late ([1]; 64 g ai/ha) | Plant response rating, Galium ([15]; 62 g ai/ha) | Plant response rating, Galium ([15]; 250 g ai/ha)
25: Plant response rating, Johnsongrass ([2]; 62 g ai/ha) | Plant response rating, Waterhemp ([14]; 125 g ai/ha) | Plant response rating, Pigweed ([16]; 62 g ai/ha)
15: Plant response rating: Watergrass, Late ([1]; 16 g ai/ha) | Plant response rating (scale of 0 to 100), Wheat [9, 17]
95: Plant response rating (scale of 0 to 100), Crabgrass, Large [4, 17] | Plant response rating, Foxtail, Giant ([12]; 125 g ai/ha) | Plant response rating, Barnyardgrass ([13]; 62 g ai/ha) | Plant response rating, Barnyardgrass ([13]; 125 g ai/ha) | Plant response rating, Barnyardgrass ([13]; 250 g ai/ha)
75: Plant response rating, Johnsongrass ([2]; 250 g ai/ha) | Plant response rating, Ragweed ([6]; 250 g ai/ha) | Plant response rating, Lambsquarters ([10]; 250 g ai/ha)
60: Plant response rating, Lambsquarters ([10]; 62 g ai/ha)
50: Plant response rating, Ragweed ([6]; 125 g ai/ha) | Plant response rating, Wheat ([9]; 125 g ai/ha)
10: Plant response rating (scale of 0 to 100), Velvetleaf [3, 17] | Plant response rating, Morningglory ([5]; 125 g ai/ha) | Plant response rating (scale of 0 to 100), Ragweed [6, 17] | Plant response rating (scale of 0 to 100), Lambsquarters [10, 17]
65: Plant response rating, Waterhemp ([14]; 250 g ai/ha)
